In patent US20040253190A1, “Breath Freshening and Oral Cleansing Product Using Citral” (priority 2002, published 2004) one finds MIC and MBC data, which are given here for 2 molecules.

≈ marks a conversion by molar mass, not a printed value.

What all share (assay type): cell-based
The subject of test [1] is Fusobacterium nucleatum. Description: MIC (Minimum Inhibitory Concentration) study, 96 well microtiter plate. Particulars: F. nucleatum, 5×10^5 CFU/ml, 37° C., turbidity at 660 nm after 48 hours. The procedure:
(§1) In vitro tests were conducted with a gram positive supragingival plaque bacterium, Streptococcus mutans. In addition, two subgingival plaque bacteria associated with oral malodor were tested, Porphyromonas gingivalis and Fusobacterium nucleatum. The MIC (Minimum Inhibitory Concentrations) study protocol is as follows. Chlorhexidine was used as a positive control and sterile water was used as a negative control. Citral was suspended in 10% methanol with 3.8% Tween 80. […] 96 well microtiter plates were used for this study. Each well contained 5×10^5 colony forming units/ml of bacteria, serially diluted agents and bacterial growth medium. All bacterial cultures were incubated at 37° C. and stationary. Bacterial growth was estimated spectrophotometrically at 660 nm, after 48 hours. The MIC for each test bacteria was defined as the minimum concentration of test compound limiting turbidity to<absorbance at 660 nm.

In test [2] the test system is Porphyromonas gingivalis. The test is described as above. As to conditions: P. gingivalis, 5×10^5 CFU/ml, 37° C., turbidity at 660 nm after 48 hours. The procedure: as §1
Test [3] deals with Fusobacterium nucleatum. Kind of test: MBC (Minimum bactericidal concentration), plating on blood agar. As to conditions: F. nucleatum, lowest concentration killing at least 99.9% of initial inoculum, plates 48 hours at 37° C. Here is the method:
as §1, with “[…]. The MBC (Minimum bactericidal concentrations) were determined using the 96 well microtiter plate serial dilutions as described above for MIC studies. Serial dilution of cultures in wells showing no visible growth were performed and 10 microliters of culture were plated in triplicate on blood agar plates. Viable colonies were scored after incubation of the plates for 48 hours at 37° C. For each test bacterium, the number of CFU/ml were determined in the initial inoculum. The MBC was defined as the lowest concentration of a test compound that killed at least 99.9% of the cells present in the initial inoculum.” for “nm.”

The test system of test [4] is Porphyromonas gingivalis. The description is as above. As to conditions: P. gingivalis, lowest concentration killing at least 99.9% of initial inoculum, plates 48 hours at 37° C. The procedure:
as §1, with “[…]. The MBC (Minimum bactericidal concentrations) were determined using the 96 well microtiter plate serial dilutions as described above for MIC studies. Serial dilution of cultures in wells showing no visible growth were performed and 10 microliters of culture were plated in triplicate on blood agar plates. Viable colonies were scored after incubation of the plates for 48 hours at 37° C. For each test bacterium, the number of CFU/ml were determined in the initial inoculum. The MBC was defined as the lowest concentration of a test compound that killed at least 99.9% of the cells present in the initial inoculum.” for “nm.”

In the next test the test system is Streptococcus mutans. Kind of test: MIC (Minimum Inhibitory Concentration) study, 96 well microtiter plate. As to conditions: S. mutans, 5×10^5 CFU/ml, 37° C., turbidity at 660 nm after 48 hours. The procedure: as §1

For orientation: MIC means the lowest concentration that inhibits growth of the organism. A low value points to greater potency. In general, MBC refers to the lowest tested concentration that kills the bacteria rather than only halting them. The low end stands for more potent killing, the high end for less potent killing. With `[H]/N=C(\N/C(=N/[H])NCCCCCCNC(=N)NC(=N)Nc1ccc(Cl)cc1)Nc1ccc(Cl)cc1` [Cholorhexidine, Chlorhexidine, reference compound], the MIC against Fusobacterium nucleatum [1] and against Porphyromonas gingivalis [2] was 1.25 µg/mL (≈ 2.47 µM) throughout. Further, the minimal bactericidal concentration (MBC) with Fusobacterium nucleatum [3] and with Porphyromonas gingivalis [4] was 1.25 µg/mL (≈ 2.47 µM) each time.
In the case of `CC(C)=CCCC(C)=CC=O` [citral], the MIC in the test on Fusobacterium nucleatum [1] turned out to be 15.6 µg/mL (≈ 102 µM); with Porphyromonas gingivalis [2], 62.5 µg/mL (≈ 411 µM); against Streptococcus mutans, 500 µg/mL (≈ 3280 µM). Moreover, the MBC in the test with Fusobacterium nucleatum [3] worked out at 31.3 µg/mL (≈ 206 µM); against Porphyromonas gingivalis [4], 125 µg/mL (≈ 821 µM).
